Reference: patent US20220402883A1, “COMPOUNDS AND METHODS FOR MODULATING RNA FUNCTION” (Arrakis Therapeutics, Inc., priority 2016, published 2022)

Key:
[1] = tested on: RNA3WJ_1.0.0_5IB_3FAM (cis 3WJ with one unpaired nucleotide); test: Fluorescence quenching binding assay (FAM / Iowa Black); settings: two concentration points
Experimental: This assay will be used to test binding of compounds for RNA three way junction (such as a 38 nt construct). This is a fluorescence quenching assay utilizing FAM as fluorescence tag and Iowa Black as quencher. Tags are attached at the 3′ and 5′ end, respectively. Stable formation of MW upon compound binding would lead to quenching of the FAM fluorescence due to close proximity of the Iowa Black tag. Assay readout: FAM (485-520 nm) Fluorescence Intensity.
(§1) Assay sample buffer used: 10 mM CacoK pH 7.2, 30 mM NaCl. Buffer preparation in Dnase/Rnase Free distilled water (Gibco Life Technologies).
(§2) Dilute the RNA 1:10 (final 10 μM) in Assay Buffer.
(§3) Heat up the diluted RNA up to 90° C. for 5 min (sealed Eppendorf Tube).
(§4) Cool down the RNA probe slowly to RT.
(§5) Dilute the compounds to 800 μM in DMSO (Assay: 8 μM).
Final concentrations in the sample: 1-10 μM RNA, 8 μM compound, 1% DMSO
Pipet 25 μL Sample Solution into Greiner cat #784076, black, 384
Measure the 96 plate with the LightCycler480 (Channel: 485/520 nm).
The fluorescence quenching experiment was repeated for compounds Ark0000013 and Ark0000014 to measure binding with:
A) RNA3WJ_1.0.0_5IB_3FAM (cis 3WJ with one unpaired nucleotide)
Both cmpds were tested at two concentration points in the fluorescence quenching assays to assess effect upon RNA constructs utilized in the study. […]

RNA3WJ_2.1.0_5IB_3FAM = test: Thermal shift binding assay; settings: 1 μM RNA, 8 μM compound, 10 mM CacoK pH 7.2, 30 mM NaCl
Source text: (§6) Purpose: Test binding of compounds for RNA three way junction (for example, a construct of 38 nt). Thermal shift assay based on established fluorescence quenching assay utilizing FAM as fluorescence tag and Iowa Black as quencher. Tags were attached at the 3′ and 5′ end, respectively. Stable formation of 3WJ upon compound binding would lead to quenching of the FAM fluorescence due to close proximity of the Iowa Black tag. Thermal unfolding leads to increase of fluorescence emission. Assay readout: FAM (465-510 nm) Thermal Shift.
as §1, §2, §3, §4, §5
(§7) Final concentrations in the sample: 1 μM RNA, 8 μM compound, 1% DMSO
(§8) Pipet 20 μL Sample Solution into Roche, Light Cycler480 Multiwell Plate96, white, REF 04729692001.
(§9) Measure the 96 plate with the LightCycler480 (Channel: 480/510 nm; Temperature: 41-91° C.).
(§10) Analyse measurement-data with the MeltingCurveGenotyping Mode.
(§11) Settings: Acquisition mode: continuous; Ramp rate: 0.1° C./sec; Acquisition: 6° C.
(§12) Curves are fitted with raw and normalized data.
(§13) Melting curves analysis show melting temperature (Tm) of ˜51° C. Range of RNA concentrations was tested and assay window was determined (conc. range of 0.5-1 μM yields best results). The choice of buffer also affected the Tm. RNA constructs were tested under different buffer conditions (especially in presence of salt) in the thermal shift assay. […] CacoK with 30 mM salt at 1 μM RNA conc. was used to assess compound effects on 3WJ stability. […] These conditions were used for screening test compounds.

RNA3WJ_1.1.0_5IB_3FAM = test: Thermal shift binding assay; settings: 1 μM RNA, 8 μM compound, 10 mM CacoK pH 7.2, 30 mM NaCl
Source text: as §6, §1, §2, §3, §4, §5, §7, §8, §9, §10, §11, §12, §13

RNA3WJ_1.1.1_5IB_3FAM = test: Thermal shift binding assay; settings: 1 μM RNA, 8 μM compound, 10 mM CacoK pH 7.2, 30 mM NaCl
Source text: as §6, §1, §2, §3, §4, §5, §7, §8, §9, §10, §11, §12, §13

[2] = tested on: RNA3WJ_0.0.0_5B_3FAM (3WJ RNA); test: Ligand observed NMR binding assay (Watergate, WaterLOGSY, STD); settings: 10 μM RNA, +/− 200 Ark000013
Experimental: Purpose: Test direct binding of compounds for RNA three way junction (3WJ). This ligand observed NMR assay is used to test direct binding of compounds to an RNA target, for example a 38 nt synthetic RNA 3WJ and others as described below. Ligand observed assay was used for hit validation studies of single compounds. Established experiments were eventually used to perform group epitope mapping, described below.
Sample buffer: 10 mM Cacodylate, pH 7.1; 0.68 g [MW: 137.99 g/mol]; fill up to 500 ml with Millipore H2O.
Compound Stocks: Tool compounds provided as dry powder were prepared as 50 mM stock solution in 100% d6-DMSO. Test compounds provided as dry powder were prepared as 50 mM stock solution in 100% d6-DMSO. Stock solutions of 50 mM concentration in d6-DMSO were stored at 4° C.
NMR spectrometer: Bruker AVANCE600 spectrometer operating at 600.0 MHz for ^1H. 5-mm z-gradient TXI Cryoprobe.
Dried RNA pellet is solubilized in sample buffer 10 mM Cacodylate pH 7.1. […]
Spectra were analyzed for direct binding signals of the compounds. […]
ARK0000013 was also tested in the NMR binding assay. Test Sample: 10 μM RNA3WJ_0.0.0_5B_3FAM+/−200 Ark000013. ^1H 1D Watergate & WaterLOGSY spectra recorded of Ark000013 were used as a reference (Note: aromatic signals observed between 7.4-7.9 ppm and due to symmetry of the center triptycene scaffold all 9 protons are magnetically equivalent).

- Melting temp + cmpd (RNA3WJ_2.1.0_5IB_3FAM): 45.7 °C
- Temp. Shift (RNA3WJ_2.1.0_5IB_3FAM): 3.8 °C
- Melting temp + cmpd (RNA3WJ_1.1.0_5IB_3FAM): 85.5 °C
- Temp. Shift (RNA3WJ_1.1.0_5IB_3FAM): 22.2 °C
- Melting temp + cmpd (RNA3WJ_1.1.1_5IB_3FAM): 82.9 °C
- Temp. Shift (RNA3WJ_1.1.1_5IB_3FAM): 20.7 °C
- STD signals [2]: small signals
- WaterLOGSY signals in the presence of RNA [2]: clear reduction of negative sign signals
Compound: CN(CCCN)CCCNC(=O)c1ccc2c(c1)C1c3cc(C(=O)NCCCN(C)CCCN)ccc3C2c2ccc(C(=O)NCCCN(C)CCCN)cc21 [Ark000013, N^2,N^7,N^15-tris(3-((3-aminopropyl)(methyl)amino)propyl)-9,10-dihydro-9,10-[1,2]benzenoanthracene-2,7,15-tricarboxamide]
- fluorescence quenching effect (FAM fluorescence signal) [1]: significant concentration dependent effect
